This passage reports inhibition and IC50 results from patent publication US7022699B2, “Cyclohexenyl phenyl diazepines vasopressin and oxytocin receptor modulators” (Wyeth, priority 2001, dated 2006).

The first test deals with T1, human oxytocin receptor (Homo sapiens, UniProt P30559).
T1 construct: host or cells: CHO cells, stably transfected (pcDNA3.1 vector); membranes
T1 sequence (P30559 1-389): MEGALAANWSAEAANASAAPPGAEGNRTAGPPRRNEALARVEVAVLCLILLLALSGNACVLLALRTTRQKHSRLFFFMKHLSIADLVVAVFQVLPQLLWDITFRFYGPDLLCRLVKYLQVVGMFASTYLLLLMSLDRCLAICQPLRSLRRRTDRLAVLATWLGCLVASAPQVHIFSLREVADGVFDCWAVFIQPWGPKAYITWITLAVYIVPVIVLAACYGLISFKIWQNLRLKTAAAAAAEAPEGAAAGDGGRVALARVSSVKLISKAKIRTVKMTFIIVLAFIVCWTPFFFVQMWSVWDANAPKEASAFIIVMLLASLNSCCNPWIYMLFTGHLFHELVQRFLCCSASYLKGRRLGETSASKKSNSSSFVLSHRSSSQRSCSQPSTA
Description: Oxytocin binding in CHO cell membranes expressing human oxytocin receptors ([3H]oxytocin). Conditions: 100 nM, values without parentheses, read-out: OT % inhibition @ 100 nM. The source says:
Oxytocin Binding in Chinese Hamster Ovary Cell Membranes Expressing Human Oxytocin Receptors
Chinese Hamster Ovary (CHO) cells stably transfected with the human oxytocin (cf. Tanizawa et al., U.S. Pat. No. 5,466,584 (1995) to Rohto Pharmaceutical Co. Ltd., Osaka, Japan) were obtained from M. Thibonnier, Case Western Reserve University School of Medicine, Cleveland, Ohio. A. Passaging and Amplification of Cells: CHO cells transfected with the human oxytocin receptors obtained from M. Thibonnier (pcDNA3.1 vector) are allowed to grow to confluency (approx. >90%) in T-150 flasks under sterile conditions, in a cell culture medium of F-12 Nutrient Mixture (HAM) with L-glutamine (Gibco Cat. #11765-054) containing 15 mM HEPES (Gibco Cat. #15630-080), 1% antibiotic/antimycotic (add 5 mL 100×, Gibco Cat. #15240-062 per 500 mL F-12), 400 μg/mL of Geneticin (add 4 mL of 50 mg/mL per 500 mL F-12) and 10% Fetal Bovine Serum (Qualified, heat inactivated, Gibco Cat. #16140-063). The medium is removed by aspiration and the cells are washed with 10 mL of Hank's Balanced Salt solution (Gibco Cat. #14175-095). The salt solution is removed by aspiration and the cells trypsinized with 5 mL of trypsin-EDTA (0.05% trypsin, 0.53 mM EDTA-4Na, Gibco Cat. #25300-070) for 1 min. The trypsin is removed by aspiration and the cells dislodged by tapping. Cell Culture medium (e.g. 30 mL for 1:30 split) is immediately added and mixed well to inactivate trypsin. 1 mL of detached cells is added to new culture flasks containing fresh Cell Culture medium (e.g. into 25 mL per T-150 flask), and mixed gently. The cells are incubated at 37° C. in 5% CO2. The medium is changed at 3 to 4 days interval (or as appropriate). The cells grow to confluency (approx. >75%–95%) within 7–8 days. All steps are done under sterile conditions. B. Membrane Preparation: The cells are washed twice gently with Hank's Balanced Salt solution (e.g., use 10 mL per T-150 flask). The excess is removed and the cells bathed for 15–30 min. in an enzyme-free Cell Dissociation Buffer (e.g., use 8 mL Hank's Based, Gibco Cat. #13150-016 per T-150 flask) until cells are loosened. The contents are transferred to centrifuge tubes (50 mL size) kept in ice bath. All subsequent steps are done at 4° C. The tubes are centrifuged at 300×g for 15 min (1380 rpm on SORVAL, Model RT6000D, using rotor for 50 mL tubes). The supernatant is discarded and the cells suspended in homogenizing buffer (10 mM Tris-HCl containing 0.25 M sucrose and 1 mM EDTA, pH 7.4) ensuring that the volume of the buffer is about ten times the volume of the cell pellet. The cells are pooled into a centrifuge tube (50 mL) and homogenized with Polytron at setting 6 for 10 sec. The homogenate is transferred into a Potter-Elvjehm homogenizer and homogenized with 3 strokes. The homogenate is centrifuged at 1500×g for 10 min at 4° C. (3100 rpm using SORVAL, model RT6000D, using rotor for 50 mL tubes). The pellet. is discarded. The supernatant is centrifuged at 100,000×g for 60 min. at 4° C. (Beckman L8-80M ultracentrifuge; spin at 37,500 rpm with rotor type 70 Ti for 50 mL tubes; 38,000 rpm with type 80Ti for 15 mL tubes; or 35,800 rpm with rotor type 45Ti). The supernantant is discarded and the pellet suspended in 3 to 4 mL of Tris buffer (50 mM TRIS-HCl, pH 7.4). The protein content is estimated by the Bradford or Lowry method. The volume of the membrane suspension is adjusted with the membrane buffer (50 mM Tris-HCl containing 0.1% BSA and 0.1 mM PMSF) to give 3.0 mg/mL (or as appropriate) of protein. The membranes are aliquoted and stored at −70° C. C. Radioligand Binding Assay: In wells of a 96-well format microliter plate, is added 90, 110 or 130 μL (to make up a final volume of 200 μL) of assay buffer containing 50 mM of Tris-HCl (pH 7.4), […], 1 mg % aprotinin, 1 mg % leupeptin, 2 mg % 1,10-phenanthroline, 10 mg % trypsin inhibitor, and 0.1 mM PMSF. The inhibitors are added on the day of the experiment. […]
As for `CC1=C(c2ccc(C(=O)N3Cc4cccn4Cc4ccccc43)cc2C)CCCC1O` (racemic) [Example 5, (10,11-Dihydro-5H-pyrrolo[2,1-c][1,4]benzodiazepin-10-yl)-[4-(3-hydroxy-2-methyl-cyclohex-1-en-1-yl)-3-methyl-phenyl]-methanone], the inhibition (commonly the percentage by which the read-out fell short of the control) at 0.1 µM is 13%.
With `CC1=C(c2ccc(C(=O)N3Cc4cccn4Cc4ccccc43)cc2C)CCC[C@H]1O` (single isomer, unassigned) [Example 41], the inhibition at 0.1 µM is 90%.
In the case of `CC1=C(c2ccc(C(=O)N3Cc4cccn4Cc4ccccc43)cc2C)CCC[C@@H]1O` (single isomer, unassigned) [Example 43], the inhibition at 0.1 µM turned out to be 96%.
Still for that read-out and setting: the value for `Cc1cc(C(=O)N2Cc3cccn3Cc3ccccc32)ccc1C1=CCCCC1` [Example 2, (10,11-Dihydro-5H-pyrrolo[2,1-c][1,4]benzodiazepin-10-yl)-(4-cyclohex-1-en-1-yl-3-methyl-phenyl)-methanone] was 96%; that for `CC1=C(c2ccc(C(=O)N3Cc4cccn4Cc4ccccc43)cc2C)CCCC1=O` [Example 4, 3-[2-Methyl-4-(5H-pyrrolo[2,1-c][1,4]benzodiazepin-10(11H)-yl-carbonyl)phenyl]-2-methyl-cyclohex-2-en-1-one] was 46%; that for `CC1=C(c2ccc(C(=O)N3Cc4cccn4Cc4ccccc43)cc2C)CCC[C@H]1O` [Example 6, (10,11-Dihydro-5H-pyrrolo[2,1-c][1,4]benzodiazepin-10-yl)-[4-((3R)-3-hydroxy-2-methyl-cyclohex-1-en-1-yl)-3-methyl-phenyl]-methanone] was 95%.
The same measure, in the same setting: the same measure for `COc1cc(C2=CCCc3ccccc32)c(Cl)cc1C(=O)N1Cc2cccn2Cc2ccccc21` [Example 8, 10-[5-Chloro-4-(3,4-dihydro-naphthalen-1-yl)-2-methoxybenzoyl]-10,11-dihydro-5H-pyrrolo[2,1-c][1,4]benzodiazepine]: 93%; for `COc1cc(C2=C(C)C(=O)CCC2)c(Cl)cc1C(=O)N1Cc2cccn2Cc2ccccc21` [Example 9, 3-[2-Chloro-5-methoxy-4-(5H-pyrrolo[2,1-c][1,4]benzodiazepin-10(11H)-yl-carbonyl)phenyl]-2-methyl-cyclohex-2-en-1-one]: 90%; for `O=C(c1ccc(C2=CCCCC2)cc1Cl)N1Cc2cccn2Cc2ccccc21` [Example 10, (10,11-dihydro-5H-pyrrolo[2,1-c][1,4]benzodiazepin-10-yl)-[2-chloro-4-(cyclohex-1-en1-yl)-phenyl]-methanone]: 95%.
On the same count and under the same terms, the same measure for `O=C(c1ccc(C2=CCCc3ccccc32)cc1Cl)N1Cc2cccn2Cc2ccccc21` [Example 11, (10,11-Dihydro-5H-pyrrolo[2,1-c][1,4]benzodiazepin-10-yl)-[2-chloro-4-(3,4-dihydro-naphthalen-1-yl)-phenyl]-methanone]: 65%.
As for `CC1(C)CCCC=C1c1ccc(C(=O)N2Cc3cccn3Cc3ccccc32)c(Cl)c1` [Example 12, (10,11-Dihydro-5H-pyrrolo[2,1-c][1,4]benzodiazepin-10-yl)-[2-chloro-4-(6,6-dimethyl-cyclohex-1-en-1-yl)-phenyl]-methanone], the inhibition at 0.1 µM was 74%.
Still for that read-out and setting: the value for `CC1=C(c2ccc(C(=O)N3Cc4cccn4Cc4ccccc43)c(Cl)c2)CCCC1=O` [Example 13, (10,11-Dihydro-5H-pyrrolo[2,1-c][1,4]benzodiazepin-10-yl)-[2-chloro-4-(2-methyl-3-oxo-cyclohex-1-en-1-yl)-phenyl]-methanone] was 98%; that for `CC1=C(c2ccc(C(=O)N3Cc4cccn4Cc4ccccc43)c(Cl)c2)CCCC1O` (stereo not drawn) [Example 14, (10,11-Dihydro-5H-pyrrolo[2,1-c][1,4]benzodiazepin-10-yl)-[2-chloro-4-(3-hydroxy-2-methyl-cyclohex-1-en-1-yl)-phenyl]-methanone] was 27%.
In the case of `CC1(C)CCCC=C1c1ccc(C(=O)N2Cc3cccn3Cc3ccccc32)cc1` [Example 17, (10,11-Dihydro-5H-pyrrolo[2,1-c][1,4]benzodiazepin-10-yl)-[4-(6,6-dimethyl-cyclohex-1-en-1-yl)-phenyl]-methanone], the inhibition at 0.1 µM was 76%.
The same measure, in the same setting: the value for `O=C(c1ccc(C2=CCCc3ccccc32)cc1)N1Cc2cccn2Cc2ccccc21` [Example 18, (10,11-Dihydro-5H-pyrrolo[2,1-c][1,4]benzodiazepin-10-yl)-[4-(3,4-dihydro-naphthalen-1-yl)-phenyl]-methanone] was 80%.
The same measure, in the same setting: the value for `CC1=C(c2ccc(C(=O)N3Cc4cccn4Cc4ccccc43)cc2)C(C)CCC1` (stereo not drawn) [Example 19, (10,11-Dihydro-5H-pyrrolo[2,1-c][1,4]benzodiazepin-10-yl)-[4-(2,6-dimethyl-cyclohex-1-en-1-yl)-phenyl]-methanone] was 47%.

The same test, now with this note: values in parentheses, read-out: OT (IC50).
For the compound `COc1cc(C2=CCCCC2)c(Cl)cc1C(=O)N1Cc2cccn2Cc2ccccc21` [Example 1, 10-(5-Chloro-4-cyclohex-1-en-1-yl-2-methoxybenzoyl)-10,11-dihydro-5H-pyrrolo[2,1-c][1,4]benzodiazepine], the IC50 (as a rule, the concentration needed to halve the response being measured) stood at 7.74 nM.
Same read-out and setting: the value for `Cc1cc(C(=O)N2Cc3cccn3Cc3ccccc32)ccc1C1=CCCc2ccccc21` [Example 3, (10,11-Dihydro-5H-pyrrolo[2,1-c][1,4]benzodiazepin-10-yl)-[4-(3,4-dihydro-naphthalen-1-yl)-3-methyl-phenyl]-methanone] was 24 nM; that for `CC1=C(c2ccc(C(=O)N3Cc4cccn4Cc4ccccc43)cc2)CCCC1` [Example 7, (10,11-Dihydro-5H-pyrrolo[2,1-c][1,4]benzodiazepin-10-yl)-[4-(2-methyl-cyclohex-1-en-1-yl)-phenyl]-methanone] was 9.06 nM; that for `O=C(c1ccc(C2=CCCCC2)cc1)N1Cc2cccn2Cc2ccccc21` [Example 15, (10,11-Dihydro-5H-pyrrolo[2,1-c][1,4]benzodiazepin-10-yl)-(4-cyclohex-1-en-1-yl-phenyl)-methanone] was 48.9 nM.
Still for that read-out and setting: the same measure for `CC1CCCC=C1c1ccc(C(=O)N2Cc3cccn3Cc3ccccc32)cc1` (stereo not drawn) [Example 16, (10,11-Dihydro-5H-pyrrolo[2,1-c][1,4]benzodiazepin-10-yl)-[4-(6-methyl-cyclohex-1-en-1-yl)-phenyl]-methanone]: 21.8 nM.
